The values that follow come from patent US20250325552A1, “SUBSTITUTED THIADIAZOLYL DERIVATIVES AS DNA POLYMERASE THETA INHIBITORS” (IDEAYA Biosciences, Inc., priority 2020, published 2025).

This test addresses Polθ theta (1-899) (hPolQ) (Homo sapiens (Human), UniProt O75417). As to the kind of experiment: Biological Assay 1: Polθ ATPase activity, NADH oxidation-coupled enzymatic assay (10 nM enzyme, 30 min). It counts as biochemical. Particulars: Polθ (1-899) 10 nM, 100 μM ATP, 300 nM dT50 ssDNA; Examples 1 to 268; read-out: ATPase NADH coupling:Standard Screening:hPolQ IC50. A digest of the protocol: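 Polθ (1-899) at 10 nM was preincubated with compound for 15 min at room temperature in 20 mM Tris pH 7.80, 80 mM KCl, 10 mM MgCl2. An equal volume of 100 μM ATP, 300 nM dT50 ssDNA and a PK/LDH–NADH coupling system was then added. A340 was read each minute for 30 min. IC50 came from rate slopes over 10-point series with a four-parameter fit.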

Sequence of Polθ theta (1-899) (hPolQ) (O75417 1-899): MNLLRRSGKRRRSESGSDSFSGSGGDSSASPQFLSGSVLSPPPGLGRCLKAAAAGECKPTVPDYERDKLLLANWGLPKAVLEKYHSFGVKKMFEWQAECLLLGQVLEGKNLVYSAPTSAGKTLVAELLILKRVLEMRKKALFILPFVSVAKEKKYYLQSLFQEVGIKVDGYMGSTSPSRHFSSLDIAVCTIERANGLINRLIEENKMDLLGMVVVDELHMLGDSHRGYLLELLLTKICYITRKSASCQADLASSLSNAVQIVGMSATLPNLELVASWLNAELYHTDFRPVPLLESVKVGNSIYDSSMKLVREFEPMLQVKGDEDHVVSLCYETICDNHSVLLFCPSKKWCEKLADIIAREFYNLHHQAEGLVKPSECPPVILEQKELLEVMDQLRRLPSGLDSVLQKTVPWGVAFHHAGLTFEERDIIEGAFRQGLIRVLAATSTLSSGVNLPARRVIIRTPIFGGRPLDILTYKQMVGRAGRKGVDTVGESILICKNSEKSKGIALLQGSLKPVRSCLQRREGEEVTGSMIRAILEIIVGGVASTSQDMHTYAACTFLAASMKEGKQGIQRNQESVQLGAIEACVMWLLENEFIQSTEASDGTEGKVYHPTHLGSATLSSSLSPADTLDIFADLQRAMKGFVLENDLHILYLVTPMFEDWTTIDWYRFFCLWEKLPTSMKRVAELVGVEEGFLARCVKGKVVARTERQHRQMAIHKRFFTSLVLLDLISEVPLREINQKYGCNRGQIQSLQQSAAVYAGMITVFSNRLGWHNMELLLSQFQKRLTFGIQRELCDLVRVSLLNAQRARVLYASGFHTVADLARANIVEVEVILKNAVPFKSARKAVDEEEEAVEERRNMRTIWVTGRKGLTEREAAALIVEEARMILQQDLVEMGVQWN

Turning to `Cc1cc(-c2c(F)cccc2OC(F)F)c(C(=O)Nc2nnc(OCc3ccc4c(n3)OCCO4)s2)cn1` [Example 47, 4-(2-(difluoromethoxy)-6-fluorophenyl)-N-(5-((2,3-dihydro-(1,4)dioxino(2,3-b)pyridin-6-yl)methoxy)-1,3,4-thiadiazol-2-yl)-6-methylnicotinamide], the IC50 is not above 200 nM. With `COc1cccc(F)c1-c1cc(C)ncc1C(=O)Nc1nnc(OCc2ccc(C3(O)CC3)cn2)s1` [Example 48, 4-(2-fluoro-6-methoxyphenyl)-N-(5-((5-(1-hydroxycyclopropyl)pyridin-2-yl)methoxy)-1,3,4-thiadiazol-2-yl)-6-methylnicotinamide] the figure was not above 200 nM; with `COc1cccc(F)c1-c1cc(C)ncc1C(=O)Nc1nnc(OCc2ccc(OC(F)F)cn2)s1` [Example 49, N-(5-((5-(difluoromethoxy)pyridin-2-yl)methoxy)-1,3,4-thiadiazol-2-yl)-4-(2-fluoro-6-methoxyphenyl)-6-methylnicotinamide], not above 200 nM. For `Cc1cc(-c2c(F)cccc2OC(F)F)c(C(=O)Nc2nnc(OCc3ccc(C(C)(C)O)cn3)s2)cn1` [Example 50, 4-(2-(difluoromethoxy)-6-fluorophenyl)-N-(5-((5-(2-hydroxypropan-2-yl)pyridin-2-yl)methoxy)-1,3,4-thiadiazol-2-yl)-6-methylnicotinamide] the value was not above 200 nM; for `COc1cnc(Cl)cc1-c1cc(C)ncc1C(=O)Nc1nnc(OCc2ccc3c(n2)OCCO3)s1` [Example 51, 2′-chloro-N-(5-((2,3-dihydro-[1,4]dioxino[2,3-b]pyridin-6-yl)methoxy)-1,3,4-thiadiazol-2-yl)-5′-methoxy-6-methyl-[4,4′-bipyridine]-3-carboxamide], not above 200 nM; for `COc1ccc(COc2nnc(NC(=O)c3cnc(C)cc3-c3cc(Cl)ccc3OC)s2)nc1` [Example 52, 4-(5-chloro-2-methoxyphenyl)-N-(5-((5-methoxypyridin-2-yl)methoxy)-1,3,4-thiadiazol-2-yl)-6-methylpyridine-3-carboxamide], not above 200 nM. For `COc1ccc(COc2nnc(NC(=O)c3cnc(C)cc3-c3ccccc3OC(F)F)s2)nc1` [Example 53, 4-(2-(difluoromethoxy)phenyl)-N-(5-((5-methoxypyridin-2-yl)methoxy)-1,3,4-thiadiazol-2-yl)-6-methylnicotinamide] the value was not above 200 nM; for `COc1cccc(F)c1-c1cc(C)ncc1C(=O)Nc1nnc(OCc2ccc(CC3COC3)cn2)s1` [Example 54, 4-(2-fluoro-6-methoxyphenyl)-6-methyl-N-(5-((5-(oxetan-3-ylmethyl)pyridin-2-yl)methoxy)-1,3,4-thiadiazol-2-yl)nicotinamide], not above 200 nM; for `COc1cccc(F)c1-c1cc(C)ncc1C(=O)Nc1nnc(OCc2ccc(CCO)cn2)s1` [Example 55, 4-(2-fluoro-6-methoxyphenyl)-N-(5-((5-(2-hydroxyethyl)pyridin-2-yl)methoxy)-1,3,4-thiadiazol-2-yl)-6-methylnicotinamide], not above 200 nM. With `Cc1cc(-c2c(F)cccc2OC(F)F)c(C(=O)Nc2nnc(OCc3ccc([C@H](C)O)cn3)s2)cn1` [Example 56, 4-(2-(difluoromethoxy)-6-fluorophenyl)-N-(5-((5-((S)-1-hydroxyethyl)pyridin-2-yl)methoxy)-1,3,4-thiadiazol-2-yl)-6-methylnicotinamide], the IC50 is not above 200 nM. With `Cc1cc(-c2c(F)cccc2OC(F)F)c(C(=O)Nc2nnc(OCc3ccc([C@@H](C)O)cn3)s2)cn1` [Example 57, 4-(2-(difluoromethoxy)-6-fluorophenyl)-N-(5-((5-((R)-1-hydroxyethyl)pyridin-2-yl)methoxy)-1,3,4-thiadiazol-2-yl)-6-methylnicotinamide] the figure was not above 200 nM.

Take `COc1cnc(Cl)cc1-c1cc(C)ncc1C(=O)Nc1nnc(OCc2ccc(C(C)(C)O)cn2)s1` [Example 58, 2′-chloro-N-(5-((5-(2-hydroxypropan-2-yl)pyridin-2-yl)methoxy)-1,3,4-thiadiazol-2-yl)-5′-methoxy-6-methyl-[4,4′-bipyridine]-3-carboxamide]: the IC50 was not above 200 nM. For `Cc1cc(-c2ccccc2OC(F)F)c(C(=O)Nc2nnc(OCc3ccc(C(C)(C)O)cn3)s2)cn1` [Example 59, 4-(2-(difluoromethoxy)phenyl)-N-(5-((5-(2-hydroxypropan-2-yl)pyridin-2-yl)methoxy)-1,3,4-thiadiazol-2-yl)-6-methylnicotinamide] the value was not above 200 nM; for `COc1cnc(Cl)cc1-c1cc(C)ncc1C(=O)Nc1nnc(OCc2ccc(CO)cn2)s1` [Example 60, 2′-chloro-N-(5-((5-(hydroxymethyl)pyridin-2-yl)methoxy)-1,3,4-thiadiazol-2-yl)-5′-methoxy-6-methyl-[4,4′-bipyridine]-3-carboxamide], not above 200 nM; for `COc1cccc(F)c1-c1cc(C)ncc1C(=O)Nc1nnc(OCC23CC(O)(C2)C3)s1` [Example 61, 4-(2-fluoro-6-methoxyphenyl)-N-(5-((3-hydroxybicyclo(1.1.1)pentan-1-yl)methoxy)-1,3,4-thiadiazol-2-yl)-6-methylnicotinamide], not above 200 nM. With `COc1ccccc1-c1cc(C)ncc1C(=O)Nc1nnc(OCc2ncccc2CO)s1` [Example 62, N-(5-((3-(hydroxymethyl)pyridin-2-yl)methoxy)-1,3,4-thiadiazol-2-yl)-4-(2-methoxyphenyl)-6-methylpyridine-3-carboxamide] the figure was 200 to 500 nM. With `COc1ccc(F)cc1-c1cc(C)ncc1C(=O)Nc1nnc(OCc2ccc(C(C)(C)O)cn2)s1` [Example 63, 4-(5-fluoro-2-methoxyphenyl)-N-(5-((5-(2-hydroxypropan-2-yl)pyridin-2-yl)methoxy)-1,3,4-thiadiazol-2-yl)-6-methylnicotinamide] the figure was not above 200 nM; with `COc1cccc(F)c1-c1cnncc1C(=O)Nc1nnc(OCc2ccc(Cl)cn2)s1` [Example 64, N-(5-((5-chloropyridin-2-yl)methoxy)-1,3,4-thiadiazol-2-yl)-5-(2-fluoro-6-methoxyphenyl)pyridazine-4-carboxamide], not above 200 nM. Take `COc1cccc(F)c1-c1cc(C)ncc1C(=O)Nc1nnc(OCC23CCC(F)(CC2)CC3)s1` [Example 65, 4-(2-fluoro-6-methoxyphenyl)-N-(5-((4-fluorobicyclo(2.2.2)octan-1-yl)methoxy)-1,3,4-thiadiazol-2-yl)-6-methylnicotinamide]: the concentration for half-maximal inhibition (IC50) was not above 200 nM.

With `COc1cccc(F)c1-c1cc(C)ncc1C(=O)Nc1nnc(OCC23CCC(O)(CC2)CC3)s1` [Example 66, 4-(2-fluoro-6-methoxyphenyl)-N-(5-((4-hydroxybicyclo(2.2.2)octan-1-yl)methoxy)-1,3,4-thiadiazol-2-yl)-6-methylnicotinamide], the IC50 is not above 200 nM. With `COc1ccnc(COc2nnc(NC(=O)c3cnc(C)cc3-c3c(F)cccc3OC)s2)c1` [Example 67, 4-(2-fluoro-6-methoxyphenyl)-N-(5-((4-methoxypyridin-2-yl)methoxy)-1,3,4-thiadiazol-2-yl)-6-methylnicotinamide] the figure was not above 200 nM; with `COc1cnc(Cl)cc1-c1cc(C)ncc1C(=O)Nc1nnc(OCc2ccc([C@H](C)O)cn2)s1` [Example 68, (S)-2′-chloro-N-(5-((5-(1-hydroxyethyl)pyridin-2-yl)methoxy)-1,3,4-thiadiazol-2-yl)-5′-methoxy-6-methyl-(4,4′-bipyridine)-3-carboxamide], not above 200 nM; with `COc1cnc(Cl)cc1-c1cc(C)ncc1C(=O)Nc1nnc(OCc2ccc([C@@H](C)O)cn2)s1` [Example 69, (R)-2′-chloro-N-(5-((5-(1-hydroxyethyl)pyridin-2-yl)methoxy)-1,3,4-thiadiazol-2-yl)-5′-methoxy-6-methyl-(4,4′-bipyridine)-3-carboxamide], not above 200 nM. With `Cc1cc(-c2c(F)cccc2OC(F)F)c(C(=O)Nc2nnc(OCc3cnc(CO)cn3)s2)cn1` [Example 70, 4-(2-(difluoromethoxy)-6-fluorophenyl)-N-(5-((5-(hydroxymethyl)pyrazin-2-yl)methoxy)-1,3,4-thiadiazol-2-yl)-6-methylnicotinamide] the figure was not above 200 nM.

Regarding `COc1ccccc1-c1cc(C)ncc1C(=O)Nc1nnc(OCc2ccc3c(n2)CCNC3)s1` [Example 71, 4-(2-methoxyphenyl)-6-methyl-N-(5-(5,6,7,8-tetrahydro-1,6-naphthyridin-2-ylmethoxy)-1,3,4-thiadiazol-2-yl)pyridine-3-carboxamide], the IC50 is 500 to 1000 nM. Consider `COc1cccc(F)c1-c1cc(C)ncc1C(=O)Nc1nnc(OCc2cc(CO)ccn2)s1` [Example 72, 4-(2-fluoro-6-methoxyphenyl)-N-(5-((4-(hydroxymethyl)pyridin-2-yl)methoxy)-1,3,4-thiadiazol-2-yl)-6-methylnicotinamide], for which the concentration for half-maximal inhibition (IC50) is not above 200 nM. With `Cc1cc(-c2ccnc(Cl)c2)c(C(=O)Nc2nnc(OCc3ccc(C(C)(C)O)cn3)s2)cn1` [Example 73, 2′-chloro-N-(5-((5-(2-hydroxypropan-2-yl)pyridin-2-yl)methoxy)-1,3,4-thiadiazol-2-yl)-6-methyl-(4,4′-bipyridine)-3-carboxamide] the figure was not above 200 nM; with `COc1cnc(C)cc1-c1cc(C)ncc1C(=O)Nc1nnc(OCc2ccc(OC(C)C)cn2)s1` [Example 74, N-(5-((5-isopropoxypyridin-2-yl)methoxy)-1,3,4-thiadiazol-2-yl)-5′-methoxy-2′,6-dimethyl-(4,4′-bipyridine)-3-carboxamide], not above 200 nM; with `COc1cccc(F)c1-c1cc(C)ncc1C(=O)Nc1nnc(OCc2ccc(OC(C)C)cn2)s1` [Example 75, 4-(2-fluoro-6-methoxyphenyl)-N-(5-((5-isopropoxypyridin-2-yl)methoxy)-1,3,4-thiadiazol-2-yl)-6-methylnicotinamide], not above 200 nM.
